In patent US20240368174A1, “Antiviral Heterocyclic Compounds” (Enanta Pharmaceuticals, Inc., priority 2023, published 2024) one finds EC50 data, which are given here for 40 compounds.

Structures are written as SMILES.

In the experiment the test system is HMPV clinical isolate A2 strain TN 94-49. Put plainly: HMPV antiviral assay, Method 2 (LLC-MK2 cells with CP-100-356, ATP-Lite). The format is cell-based. The conditions noted are these: human metapneumovirus; hMPV A2 TN/94-49, LLC-MK2 cells with CP-100-356, Method 2. As for the experimental part: In vitro HMPV antiviral activity was evaluated using the clinical isolate A2 strain TN 94-49 (obtained from Dr. John Williams, Vanderbilt University, Tennessee) and LLC-MK2 cells (Millipore Sigma CB_85062804), an immortalized kidney epithelial cell line from Macaca mulatta. Compounds were resuspended in dimethyl sulfoxide (DMSO) at 10 mM, serially diluted and added to a 384-well source plate. Subsequently, the compounds were diluted and transferred onto 384-well assay plates using the Echo-650 automated liquid handling system (Beckman Coulter, Indiana). The test compounds were assessed in duplicate at a top concentration of 200 nM followed by 2.5-fold serial dilutions to give a total of 10 concentration points. DMSO control wells were also included on the assay plates and were either infected or not, acting as positive and negative controls. A2 TN 94-49 virus infections were performed in-suspension with LLC-MK2 cells. The cells were washed twice with PBS and removed from the cell-culture flask with 0.25% trypsin-EDTA (Thermo Fisher Scientific, MA). The trypsin-EDTA was inactivated by resuspending in 2% fetal bovine serum (FBS) and OptiMEM (ThermoFisher Scientific, MA) containing 1% antibiotic-antimycotic. Cells were pelleted by centrifuging for 5 minutes at 800 rpm, the supernatant was removed, and cells were re-suspended and washed in PBS plus 100 μg/mL CaCl2). This step was performed twice. Cells were then re-suspended in serum-free (SF)-OptiMEM containing 4 μg/mL TPCK-Trypsin (Sigma Aldrich, MO), 1% antibiotic-antimycotic (ThermoFisher Scientific, MA), 100 μg/mL CaCl2), and 4 μM of CP-100-356, a P-glycoprotein inhibitor. Cells were counted and seeded at a density of 5,000 cells/well, 12.5 μL/well. Virus infections were done at a multiplicity of infection (MOI) of 0.16 with 12.5 μL added per well. Virus infections were performed in infection media which contained SF-OptiMEM, 100 μg/mL CaCl2) and 1% antibiotic-antimycotic. HMPV viral stocks are suspended in infection media+5% glycerol, thus an equal volume of infection media+5% glycerol was added to uninfected wells to equalize the final % glycerol across all wells of the assay plate. The final concentration of TPCK-trypsin was 2 μg/mL. The final concentration of CP-100-356 was 2 μM. The assay plates were incubated at 37° C., 5% CO2 for 7 days. After 7 days incubation, 12.5 μL of ATP-Lite (PerkinElmer, MA) was added to each well and the raw luminescence values were determined using the Envision 2104 (Perkin Elmer, MA). The average of the raw luminescence values for the cells and virus only positive control wells was subtracted from all conditions tested and the percent cell health was determined by dividing these values by the average of the cells only negative control wells. EC50 values were then calculated by non-linear regression using a four-parameter curve logistic equation. The curve fit model employed was XLFit Dose Response One Site Model 200: y=(A+(B/(1+((x/C)^D)))), where A is the minimum y value, B is the maximum y value, C is the log EC50 value, and D is the slope factor.
`COc1cc(C(=O)NC[C@@](O)(c2ccccc2)c2cc3c(c(-c4ccc5c(c4)OC(F)(F)O5)n2)OC[C@]3(C)C(N)=O)cc2oc(C3CC3)nc12` [Example 200] gave an EC50 of under 200 nM.
In turn, `COc1cc(C(=O)NC[C@@](O)(c2ccccc2)c2cc3c(c(-c4ccc5c(c4)OC(F)(F)O5)n2)OC[C@]3(C)C(N)=O)cc2oc(C)nc12` [Example 201] had an EC50 of under 200 nM.
On to `COc1cc(C(=O)NC[C@@](O)(c2ccccc2)c2cc3c(c(-c4ccc5c(c4)OC(F)(F)O5)n2)OC[C@]3(C)C(N)=O)cc2cc(Cl)cnc12` [Example 202], for which the EC50 was under 200 nM.
The same measure for `COc1cc(C(=O)NC[C@@](O)(c2cccc(F)n2)c2cc3c(c(-c4cc(Cl)c(F)cc4F)n2)OC[C@]3(C)C(N)=O)cc2cn(C3CC3)nc12` [Example 203]: under 200 nM; for `COc1cc(C(=O)NC[C@@](O)(c2cccc(F)n2)c2cc3c(c(-c4cc(Cl)c(F)cc4F)n2)OC[C@]3(C)C(N)=O)cc2cn(C3(F)CC3)nc12` [Example 204]: under 200 nM; for `COc1cc(C(=O)NC[C@@](O)(c2cccc(F)n2)c2cc3c(c(-c4cc(Cl)c(F)cc4F)n2)OC[C@]3(C)C(N)=O)cc2cn(C(F)F)nc12` [Example 205]: under 200 nM.
`COc1cc(C(=O)NC[C@@](O)(c2cccc(F)n2)c2cc3c(c(-c4cc(Cl)c(F)cc4F)n2)OC[C@]3(C)C(N)=O)cc2cc(C3CC3)nn12` [Example 206] had an EC50 of under 200 nM.
The same measure for `COc1cc(C(=O)NC[C@](O)(c2cc3c(c(-c4ccnc(F)c4Cl)n2)OC[C@]3(C)C(N)=O)C2CC2)cc2cn(C(F)F)nc12` [Example 207]: under 200 nM.
The same measure for `COc1cc(C(=O)NC[C@](O)(c2cc3c(c(-c4ccnc(F)c4Cl)n2)OC[C@]3(C)C(N)=O)C2CC2)cc2oc(C3CC3)nc12` [Example 208]: under 200 nM.
`COc1cc(C(=O)NC[C@](O)(c2cc3c(c(-c4ccnc(F)c4Cl)n2)OC[C@]3(C)C(N)=O)C2CC2)cc2cn(C3(F)CC3)nc12` [Example 209] came in with a half-maximal effective concentration (EC50) of under 200 nM.
The same measure for `COc1cc(C(=O)NCC(O)(c2ccc(F)cn2)c2cc3c(c(-c4cc(Cl)c(F)cc4F)n2)OC[C@]3(C)C(N)=O)cc2cn(C3CC3)nc12` (stereo partly shown) [Example 210]: under 200 nM; for `C[C@]1(C(N)=O)COc2c1cc([C@@](O)(CNC(=O)c1cc(OC(F)F)c3nc(C4CC4)oc3c1)c1ccccc1)nc2-c1cc(Cl)c(F)cc1F` [Example 216]: under 200 nM; for `C[C@]1(C(N)=O)COc2c1cc([C@@](O)(CNC(=O)c1ccc3nc(C4(F)CC4)oc3c1)c1ccccc1)nc2-c1cc(Cl)c(F)cc1F` [Example 219]: under 200 nM.
Take `[2H]c1nc2c(OC)cc(C(=O)NC[C@@](O)(c3ccccc3)c3cc4c(c(-c5cc(Cl)c(F)cc5F)n3)OC[C@]4(C)C(N)=O)cc2cc1Cl` [Example 220]: the EC50 was under 200 nM.
The same measure for `C[C@]1(C(N)=O)COc2c1cc([C@@](O)(CNC(=O)c1ccc3nc(C4CCC4)oc3c1)c1ccccc1)nc2-c1cc(Cl)c(F)cc1F` [Example 221]: over 200 nM.
The same measure for `C[C@]1(C(N)=O)COc2c1cc([C@@](O)(CNC(=O)c1ccc3nc(C(F)F)oc3c1)c1ccccc1)nc2-c1cc(Cl)c(F)cc1F` [Example 222]: over 200 nM; for `C[C@]1(C(N)=O)COc2c1cc([C@@](O)(CNC(=O)c1ccc3nc(-c4ccc5nc(C(F)F)oc5c4)oc3c1)c1ccccc1)nc2-c1cc(Cl)c(F)cc1F` [Example 223]: over 200 nM; for `CC(C)c1nc2ccc(C(=O)NC[C@@](O)(c3ccccc3)c3cc4c(c(-c5cc(Cl)c(F)cc5F)n3)OC[C@]4(C)C(N)=O)cc2o1` [Example 224]: over 200 nM.
The same measure for `COc1cc(C(=O)NC[C@](O)(c2cc3c(c(-c4cc(Cl)c(F)cc4F)n2)OC[C@]3(C)C(N)=O)C2CC2)cc2cc(Cl)cnc12` [Example 225]: under 200 nM.
In turn, `C[C@]1(C(N)=O)COc2c1cc([C@@](O)(CNC(=O)c1cc(OC3CC3)c3ncc(Cl)cc3c1)C1CC1)nc2-c1cc(Cl)c(F)cc1F` [Example 226] yielded an EC50 of under 200 nM.
The same measure for `C[C@]1(C(N)=O)COc2c1cc([C@@](O)(CNC(=O)c1ccc3nc(-c4ccccc4)oc3c1)c1ccccc1)nc2-c1cc(Cl)c(F)cc1F` [Example 227]: over 200 nM; for `C[C@]1(C(N)=O)COc2c1cc([C@@](O)(CNC(=O)c1cc(C(F)(F)F)c3nn(C4CC4)cc3c1)c1ccccc1)nc2-c1cc(Cl)c(F)cc1F` [Example 228]: under 200 nM.
The same measure for `C[C@]1(C(N)=O)COc2c1cc([C@@](O)(CNC(=O)c1cc(C(F)F)c3nn(C4CC4)cc3c1)c1ccccc1)nc2-c1cc(Cl)c(F)cc1F` [Example 229]: under 200 nM; for `C[C@]1(C(N)=O)COc2c1cc([C@@](O)(CNC(=O)c1ccc3nc(Cc4ccccc4)oc3c1)c1ccccc1)nc2-c1cc(Cl)c(F)cc1F` [Example 230]: over 200 nM; for `C[C@]1(C(N)=O)COc2c1cc([C@@](O)(CNC(=O)c1cc(OC(F)F)c3ncc(Cl)cc3c1)c1ccccc1)nc2-c1cc(Cl)c(F)cc1F` [Example 231]: under 200 nM.
The same measure for `C[C@]1(C(N)=O)COc2c1cc([C@@](O)(CNC(=O)c1cc(Cl)c3nc(C4CC4)oc3c1)c1ccccc1)nc2-c1cc(Cl)c(F)cc1F` [Example 232]: under 200 nM; for `C[C@]1(C(N)=O)COc2c1cc([C@@](O)(CNC(=O)c1cc(OC3CC3)c3nc(C4CC4)oc3c1)c1ccccc1)nc2-c1cc(Cl)c(F)cc1F` [Example 233]: under 200 nM.
The compound `Cc1nc2c(OC3CC3)cc(C(=O)NC[C@@](O)(c3ccccc3)c3cc4c(c(-c5cc(Cl)c(F)cc5F)n3)OC[C@]4(C)C(N)=O)cc2o1` [Example 234] had an EC50 of under 200 nM.
`COc1cc(C(=O)NC[C@](O)(c2cc3c(c(-c4cc(Cl)c(F)cc4F)n2)OC[C@]3(C)C(N)=O)C2CC2)cc(O)c1NC(=O)C1(F)CC1` [Example 236] gave an EC50 of over 200 nM.
For `COc1cc(C(=O)NC[C@@](O)(c2ccccc2)c2cc3c(c(-c4cc(Cl)c(F)cc4F)n2)OC[C@]3(C)C(N)=O)cc2oc(N)nc12` [Example 237], the EC50 is under 200 nM.
The same measure for `COc1cc(C(=O)NC[C@@](O)(c2ccccc2)c2cc3c(c(-c4cc(Cl)c(F)cc4F)n2)OC[C@]3(C)C(N)=O)cc2oc(C3(F)CC3)nc12` [Example 241]: under 200 nM; for `COc1cc(C(=O)NC[C@@](O)(c2ccccc2)c2cc3c(c(-c4cc(Cl)c(F)cc4F)n2)OC[C@]3(C)C(N)=O)cc(O)c1NC(=O)C1(F)CC1` [Example 242]: over 200 nM.
The same measure for `COc1cc(C(=O)NC[C@](O)(c2cc3c(c(-c4cc(C(F)(F)F)ncc4F)n2)OC[C@]3(C)C(N)=O)C2CC2)cn2cc(C3CC3)nc12` [Example 246]: under 200 nM; for `COc1cc(C(=O)NC[C@@](O)(c2cccc(F)c2)c2cc3c(c(-c4ccc5c(c4Cl)OC(F)(F)O5)n2)OC[C@]3(C)C(N)=O)cc2oc(C)nc12` [Example 285]: under 200 nM; for `COc1cc(C(=O)NC[C@@](O)(c2cccc(F)c2)c2cc3c(c(-c4ccc5c(c4Cl)OC(F)(F)O5)n2)OC[C@]3(C)C(N)=O)cc2oc(C3CC3)nc12` [Example 286]: under 200 nM.
For `COc1cc(C(=O)NC[C@@](O)(c2ccccc2)c2cc3c(c(-c4cc(C(F)F)c(F)cc4F)n2)OC[C@]3(C)C(N)=O)cc2cn(C(F)F)nc12` [Example 300], the EC50 is under 200 nM.
The same measure for `COc1cc(C(=O)NC[C@@](O)(c2cccc(F)c2)c2cc3c(c(-c4cc(C(F)(F)F)c(F)cc4F)n2)OC[C@]3(C)C(N)=O)cc2cn(C(F)F)nc12` [Example 301]: under 200 nM; for `COc1cc(C(=O)NC[C@@](O)(c2ccccc2)c2cc3c(c(-c4cc(C(F)(F)F)c(F)cc4F)n2)OC[C@]3(C)C(N)=O)cc2cn(C3CC3)nc12` [Example 302]: under 200 nM.
The same measure for `COc1cc(C(=O)NC[C@@](O)(c2ccccc2)c2cc3c(c(-c4cc(C(F)(F)F)c(F)cc4F)n2)OC[C@]3(C)C(N)=O)cc2cn(C3(F)CC3)nc12` [Example 303]: under 200 nM; for `COc1cc(C(=O)NC[C@@](O)(c2ccccc2)c2cc3c(c(-c4cc(C(F)(F)F)c(F)cc4F)n2)OC[C@]3(C)C(N)=O)cc2cn(C(F)F)nc12` [Example 304]: under 200 nM.
